From US8268306B2, “Pesticidal and antiparasitic compositions” (Centro de Ingenieria Genetica y Biotecnologia, priority 2001, dated 2012)

Legend:
[1] = tested on: Trichostrongylus colubriformis; assay: In vitro nematicidal effect of hydrogen sulfide and chitinase, egg hatching; type: cell-based; settings: Trichostrongilus eggs, emerging larvae after 24 hours; fraction E = 1 − Ntto/Nc; mean of 4 replicas
Protocol: (§1) Eggs from zoonematodes Haemonchus spp and Trichostrongylus colubriformis and Dictyocaulus viviparus were used, as well as parasitic phytonematode larvae (juveniles 2) from Melodoigyne incognita.
(§2) Collections of Haemonchus spp and Trichostrongylus colubriformis nematodes were made from ovine (sheep) and bovine (cattle) abomasa, respectively. The adult female nematodes were washed in a physiological solution and treated with “Hibitane” (Chlorhexidine Acetate) at 0.5%, for 1 minute, the process developed at 37° C. Approximately 100 previously disinfected individuals were introduced into an Erlenmeyer containing 50 ml of LB medium solution, diluted 10 times in distilled sterile water, and were left laying their eggs overnight (8-10 hours).
(§3) From that moment on, manipulation was done under aseptic conditions in a vertical laminar flow, using 24-well tissue culture plates. The total volume of the medium that contained the females and the eggs was filtered with a sift net of 60 μm. The nematode eggs were trapped on the 30 μm net of a second sifts. It was introduced into a Hibitane solution at 0.5% for 3 minutes, followed by three washes with LB medium diluted 10 times in sterile distilled water.
(§4) Once disinfected, the eggs were removed from the sift and were carefully resuspended with a LB medium solution diluted 10 times in sterile distilled water. The final result of the distribution was checked by counting and registering the eggs in each well with an inverted Olympus microscope, observations of the uniformity of the evolutionary state in this phase were made too.
(§5) The Haemonchus spp and T. colubriformis' eggs hatch between 24 and 48 hours of incubation at 28° C., whereas the D. vivparus' eggs hatch before 24 hours. A good sample preparation is accomplished when in all the untreated controls more than 60% of hatching occurs in the previously foreseen times for each species.
(§6) The nematode's eggs and larvae were placed in a number of 100 individuals in approximately 2 ml of LB medium diluted 10 times. This volume was introduced into safety valves that allow the air to go through the liquid and, therefore, the gasses make contact with the eggs and larvae. Every valve was a replica for each treatment.
(§7) The hydrogen sulfide was obtained by a reaction against the chloride acid of two sulfide salts (Na2S and FeS), and from an anaerobial fermentation of bacterium Desulfovibrio desulfuricans subs. desulfuricans ATCC 27774 (isolated from an ovine rumen). The chitinolytic enzyme used was chitinase SIGMA C 1650, from bacterium Serratia marcescens.
(§8) The nematode's eggs and larvae under the study were subjected to the following treatments for 24 hours:
(§9) 1. Control treatment: chitinase not applied, and air circulated through the valve.
(§10) 2. Chitinase treatment: chitinase at a rate of 0.2 units per replica.
(§11) 3. Sulfide treatment: hydrogen sulfide from Na2S with a 0.2 flux at 0.3 mg/minute.
(§12) 4. Sulfide treatment: hydrogen sulfide from FeS with a 0.2 flux at 0.3 mg/minute.
(§13) 5. Sulfide treatment: hydrogen sulfide from Desulfovibrio desulfuricans with a 0.2 flux at 0.3 mg/minute.
(§14) 6. Combined treatment: simultaneous application of treatments 2 and 3.
(§15) 7. Combined treatment: simultaneous application of treatments 2 and 4.
(§16) 8. Combined treatment: simultaneous application of treatments 2 and 5.
(§17) All the above treatments had 4 replicas.
(§18) Twenty-four hours after starting the experiment the emerging larvae (Haemonchus sp., T. colubriformis and D. viviparous) and the number of live larvae (Melodogyne incognita) in all the treatments, were counted. This value is the mean of the 4 replicas in every treatment. The variance analysis (ANOVA) was applied to the results obtained in each nematode species in the study, separately; the Duncan test (Lerch G. 1977. La Experimentación en las ciencias biológicas y agrícolas. 1^ra edición, p.p. 203-308, Editorial Científico-Técnica, La Habana) was applied, which is also shown in table 1. […]

Haemonchus spp = assay: as above; type: cell-based; settings: Haemonchus eggs, emerging larvae after 24 hours; fraction E = 1 − Ntto/Nc; mean of 4 replicas
Protocol: as §1, §2, §3, §4, §5, §6, §7, §8, §9, §10, §11, §12, §13, §14, §15, §16, §17, §18

Melodoigyne incognita = assay: In vitro nematicidal effect of hydrogen sulfide and chitinase, live larvae (juveniles 2); type: cell-based, Meloidogyne incognita; settings: Meloidogyne larvae, live larvae after 24 hours; fraction E = 1 − Ntto/Nc; mean of 4 replicas
Protocol: as §1
The collection of egg mass of Meloidogyne incognita was performed from squash roots (Cucurbita pepo), previously infested and cultivated in greenhouses. For this operation a stereoscope microscope and needles with properly altered tips were used. The masses were put in sterile distilled water in Petri dishes at 28° C., in a number of 50 masses per dish. Daily observations were made to check egg hatching. In approximately 72 hours, there were enough larvae to start collecting and disinfecting.
The total volume of water containing the egg masses and the larvae were filtered through a sift net of 60 μm. From that moment on all the manipulation was done under aseptic conditions in a vertical laminar flow, using 24-well tissue culture plates. The eggs detached from the mass were unable to hatch and remained on the sift net of 30 μm; the larvae were collected with a further net of 5 μm. It was introduced into a Hibitane solution at 0.5% for 3 minutes followed by 3 washes with LB medium diluted 10 times in sterile distilled water. Once disinfected, the Meloidogyne incognita larvae were removed from the sift net and carefully resuspended with a LB medium solution diluted 10 times in sterile distilled water. The final collecting and disinfecting results were checked by counting and registering the live larvae with an inverted Olympus microscope.
as §6, with “treatment. […]” for “treatment.”
(§19) Twenty-four hours after starting the experiment the emerging larvae (Haemonchus sp., T. colubriformis and D. viviparous) and the number of live larvae (Melodogyne incognita) in all the treatments, were counted. […]

Dictyocaulus viviparus = assay: In vitro nematicidal effect of hydrogen sulfide and chitinase, egg hatching; type: cell-based; settings: Dictyocaulus eggs, emerging larvae after 24 hours; fraction E = 1 − Ntto/Nc; mean of 4 replicas
Protocol: as §1
Collections of D. viviparous nematode were made from the infested lung of a bovine (cattle), previously sacrificed. The same procedure was used for Haemochus spp. and T. colubriformis; however, the females were allowed to lay their eggs for 2-3 hours.
as §3, §4, §5
The nematode's eggs and larvae were placed in a number of 100 individuals in approximately 2 ml of LB medium diluted 10 times. This volume was introduced into safety valves that allow the air to go through the liquid and, therefore, the gasses make contact with the eggs and larvae. […]
as §19

## S [3. Esn, hydrogen sulfide]
[1]
  Treatment effectiveness (E): 0.40
Haemonchus spp
  Treatment effectiveness (E): 0.41
Melodoigyne incognita
  Treatment effectiveness (E): 0.51
Dictyocaulus viviparus
  Treatment effectiveness (E): 0.44

## S [5. Esd, hydrogen sulfide]
[1]
  Treatment effectiveness (E): 0.38
Haemonchus spp
  Treatment effectiveness (E): 0.37
Melodoigyne incognita
  Treatment effectiveness (E): 0.47
Dictyocaulus viviparus
  Treatment effectiveness (E): 0.40

## S [4. Esf, hydrogen sulfide]
[1]
  Treatment effectiveness (E): 0.39
Haemonchus spp
  Treatment effectiveness (E): 0.40
Melodoigyne incognita
  Treatment effectiveness (E): 0.52
Dictyocaulus viviparus
  Treatment effectiveness (E): 0.42
